Laboratory results published in the NIST ThermoML archive (doi:10.1016/j.jct.2013.08.018).
Where “and” joins values, the source holds several entries; their conditions need not be identical. Equal values may be shown once. Numbers after ± are expanded uncertainties.

Test: osmotic coefficient (dimensionless); mn = molality of the nth substance listed, in mol/kg
Details: 298.15 K, 101 kPa, Liquid
[1] = commercial osmometer Gonotec 070, m1 = 0.5
[2] = commercial osmometer Gonotec 070, m1 = 1
[3] = commercial osmometer Knauer K-7000, m1 = 1
[4] = commercial osmometer Knauer K-7000, m1 = 3

| osmotic coefficient [1] | osmotic coefficient [2] | osmotic coefficient [3] | osmotic coefficient [4] | Compound |
| --- | --- | --- | --- | --- |
| 0.916 and 0.923 | 0.934 and 0.927 | – | – | [I-].[K+] [potassium iodide] + O |
| – | – | 0.927 and 0.925 | 1.05 | [Cl-].[Na+] [sodium chloride] + O |
| 0.717 and 0.69 | 0.658 and 0.642 | – | – | O=S(=O)([O-])[O-].[Na+].[Na+] [sodium sulfate] + O |
| 0.905 ± 0.011 | 0.915 ± 0.01 | 0.895 and 0.897 | 0.938 and 0.935 and 0.936 | [Cl-].[K+] [potassium chloride] + O |
| 0.955 and 0.95 | 0.985 and 1 | – | – | [I-].[Na+] [sodium iodide] + O |
| 0.953 and 0.934 | 0.959 and 0.971 | – | – | [Br-].[Na+] [sodium bromide] + O |

Further lines, the compound ahead of its results:

| Compound | osmotic coefficient [1] | osmotic coefficient [2] | osmotic coefficient [3] | osmotic coefficient [4] |
| --- | --- | --- | --- | --- |
| [Br-].[K+] [potassium bromide] + O | 0.907 and 0.905 | 0.919 and 0.917 | – | – |
| O=[N+]([O-])[O-].[Na+] [sodium nitrate] + O | 0.895 and 0.874 | 0.865 and 0.867 | 0.854 and 0.859 | 0.805 and 0.806 |
| [Cl-].[Li+] [lithium chloride] + O | 0.928 and 0.955 | 0.987 and 0.978 | – | – |
| [Br-].[Li+] [lithium bromide] + O | 0.978 and 0.97 | 1.03 and 1.04 | – | – |
| [I-].[Li+] [lithium iodide] + O | 1 and 1.01 | 1.07 and 1.01 | – | – |
| O=[N+]([O-])[O-].[K+] [potassium nitrate] + O | – | – | 0.746 and 0.744 and 0.747 | 0.599 and 0.597 and 0.598 |
| N.N.O=S(=O)(O)O [ammonium sulfate] + O | – | – | 0.643 and 0.64 and 0.641 | 0.629 and 0.627 and 0.625 |
